Source: patent US20090311237A1, “Combination therapy using a soluble hyaluronidase and a bisphosphonate” (priority 2008, published 2009)
Where two headings read alike, the source gives them in different places.

Assay: Phase 1 Stage 1 clinical pharmacokinetics of SC ZA co-administered with rHuPH20
Format: in vivo, human
Details: human, serum, sc; for AUC(0-t): AUC (0-48 h); for AUC(0-t) / Cmax / AUC(0-inf) / Tmax: ZA […] SC; for AUC(0-inf): read-out: AUC (0-inf); for Tmax: read-out: Tmax; for concentration at 0 h: 0 h post infusion; for concentration at 10 min: 10 min post infusion; for concentration at 0.5 h: 0.5 h post infusion; for concentration at 1 h: 1 h post infusion; for concentration at 2 h: 2 h post infusion; for concentration at 4 h: 4 h post infusion; for concentration at 6 h: 6 h post infusion; for concentration at 8 h: 8 h post infusion
Method: A pharmacokinetic study of zoledronic acid (ZA) co-administered with rHuPH20 in human subjects was conducted. The primary objective of the study was to determine the bioavailability of zoledronic acid dosed via subcutaneous (SC) co-administration with human recombinant hyaluronidase PH20 (rHuPH20). […] The patients were administered the prescribed dosage formulations as follows: Cohorts 1-5 were administered a single subcutaneous infusion in a dosage volume of 100 ml at a rate of 3 mL/min. […] The dosing solution is administered via needle or catheter into the SC space of the left anterior thigh (midway between the anterior iliac crest and the cephalad border of the patella). For cohorts 1-5, the dosing solutions were administered by a controlled rate infusion pump at approximately 3 mL/minute. […] The dosing solutions were administered by syringe push bolus injection. […] Serum concentration of ZA was determined using a qualified LC-MS-MS assay after derivatization with diazomethane (Zhu, L S et al. (2006) Rapid Commun. […] The assay range was from 2.0 to 400 ng/mL with a lower limit of quantitation (LLOQ) at 2.0 ng/mL. […] Non-compartmental analysis was used for derivation of primary and secondary pharmacokinetic (PK) parameters. […] Summary statistics (mean, standard deviation, and median) were calculated using JMP or Microsoft Excel.

[1] = Subj 21, inf 0.556 hr, PH20 24000 U
[2] = Subj 25, inf 0.549 hr, PH20 23736 U
[3] = Subj 31, inf 0.554 hr, PH20 23952 U
[4] = Subj 32, inf 0.556 hr, PH20 24000 U
[5] = Subj 51, inf 0.251 hr, PH20 6024 U
[6] = Subj 1, inf 0.554 hr, PH20 23928 U
[7] = Subj 8, inf 0.531 hr, PH20 22944 U
[8] = Subj 11, inf 0.554 hr, PH20 23928 U
[9] = Subj 16, inf 0.553 hr, PH20 23904 U
[10] = ZA 0.25 mg SC infusion + 24000 Units rHuPH20, individual subjects, read-out: Zoledronic Acid Concentration
[11] = ZA 0.25 mg SC infusion + 24000 Units rHuPH20, n=3, read-out: Mean Conc.
[12] = ZA 0.25 mg SC infusion + 24000 Units rHuPH20, n=3, read-out: Median Conc.
[13] = ZA 0.5 mg SC infusion + 24000 Units rHuPH20, individual subjects, read-out: Zoledronic Acid Concentration
[14] = ZA 0.5 mg SC infusion + 24000 Units rHuPH20, n=3, read-out: Mean Conc.
[15] = ZA 0.5 mg SC infusion + 24000 Units rHuPH20, n=3, read-out: Median Conc.

O=P(O)(O)C(O)(Cn1ccnc1)P(=O)(O)O [ZA, 1-hydroxy-2-(1H-imidazol-1-yl)ethylidene-1,1-bisphosphonic acid]
AUC(0-t) (Subj 18, inf […], PH20 23304 U): 69.8 ng·h/mL
AUC(0-t) [1]: 66.1 ng·h/mL
AUC(0-t) [2]: 115 ng·h/mL
AUC(0-t) (Subj 26, inf […], PH20 23088 U): 150 ng·h/mL
AUC(0-t) [3]: 234 ng·h/mL
AUC(0-t) [4]: 277 ng·h/mL
AUC(0-t) [5]: 471 ng·h/mL
AUC(0-t) (Subj 77, inf […], PH20 6000 U): 618 ng·h/mL
Cmax [6]: 7.75 ng/mL
AUC(0-inf) [6]: 29.9 ng·h/mL
Tmax [6]: 1.02 h
Cmax [7]: 5.67 ng/mL
AUC(0-inf) [7]: 32.6 ng·h/mL
Tmax [7]: 1.41 h
Cmax [8]: 6.84 ng/mL
AUC(0-inf) [8]: 30.8 ng·h/mL
Tmax [8]: 1.25 h
Cmax [9]: 15.3 ng/mL
AUC(0-inf) [9]: 62.5 ng·h/mL
Tmax [9]: 0.8 h
Cmax (Subj 18, inf […], PH20 23304 U): 17.1 ng/mL
AUC(0-inf) (Subj 18, inf […], PH20 23304 U): 68.1 ng·h/mL
Tmax (Subj 18, inf […], PH20 23304 U): 1.29 h
Cmax [1]: 14.2 ng/mL
AUC(0-inf) [1]: 64.3 ng·h/mL
Tmax [1]: 1.31 h
Cmax [2]: 30.1 ng/mL
AUC(0-inf) [2]: 117 ng·h/mL
Tmax [2]: 1.3 h
Cmax (Subj 26, inf […], PH20 23088 U): 33.4 ng/mL
AUC(0-inf) (Subj 26, inf […], PH20 23088 U): 153 ng·h/mL
Tmax (Subj 26, inf […], PH20 23088 U): 1.03 h
Cmax [3]: 53 ng/mL
AUC(0-inf) [3]: 239 ng·h/mL
Tmax [3]: 1.54 h
Cmax [4]: 58.7 ng/mL
AUC(0-inf) [4]: 295 ng·h/mL
Tmax [4]: 1.56 h
Cmax [5]: 95.4 ng/mL
AUC(0-inf) [5]: 508 ng·h/mL
Tmax [5]: 0.52 h
Cmax (Subj 77, inf […], PH20 6000 U): 147 ng/mL
AUC(0-inf) (Subj 77, inf […], PH20 6000 U): 678 ng·h/mL
Tmax (Subj 77, inf […], PH20 6000 U): 0.75 h
concentration at 0 h [10]: 4.5 ng/mL
concentration at 0 h [11]: 4.74 ng/mL
concentration at 0 h [12]: 4.69 ng/mL
concentration at 10 min [10]: 7.43 ng/mL
concentration at 10 min [11]: 5.76 ng/mL
concentration at 10 min [12]: 4.97 ng/mL
concentration at 0.5 h [10]: 7.75 ng/mL
concentration at 0.5 h [11]: 6.39 ng/mL
concentration at 0.5 h [12]: 6.25 ng/mL
concentration at 1 h [10]: 7.25 ng/mL
concentration at 1 h [11]: 6.51 ng/mL
concentration at 1 h [12]: 6.6 ng/mL
concentration at 2 h [10]: 5.42 ng/mL
concentration at 2 h [11]: 5.06 ng/mL
concentration at 2 h [12]: 5.42 ng/mL
concentration at 4 h [10]: 2.56 ng/mL
concentration at 4 h [11]: 3.02 ng/mL
concentration at 4 h [12]: 3.06 ng/mL
concentration at 6 h [10]: 1.2 ng/mL
concentration at 6 h [11]: 1.52 ng/mL
concentration at 6 h [12]: 1.35 ng/mL
concentration at 8 h [10]: 0.56 ng/mL
concentration at 8 h [11]: 0.82 ng/mL
concentration at 8 h [12]: 0.79 ng/mL
concentration at 0 h [13]: 10.8 ng/mL
concentration at 0 h [14]: 11.8 ng/mL
concentration at 0 h [15]: 11.1 ng/mL
concentration at 10 min [13]: 15 ng/mL
concentration at 10 min [14]: 15 ng/mL
concentration at 10 min [15]: 15 ng/mL
concentration at 0.5 h [13]: 13.8 ng/mL
concentration at 0.5 h [14]: 14.4 ng/mL
concentration at 0.5 h [15]: 13.8 ng/mL
concentration at 1 h [13]: 14.1 ng/mL
concentration at 1 h [14]: 14.3 ng/mL
concentration at 1 h [15]: 14.1 ng/mL
concentration at 2 h [13]: 11.1 ng/mL
concentration at 2 h [14]: 11.1 ng/mL
concentration at 2 h [15]: 11.1 ng/mL
concentration at 4 h [13]: 5.27 ng/mL
concentration at 4 h [14]: 5.72 ng/mL
concentration at 4 h [15]: 5.87 ng/mL
concentration at 6 h [13]: 2.5 ng/mL
concentration at 6 h [14]: 2.69 ng/mL
